Patent publication US9434743B2, “Indazole derivatives” (TAKEDA PHARMACEUTICAL COMPANY LIMITED, priority 2012, dated 2016)

Columns and labels:
[1] = molecular target: T1, human MetAP2 enzyme (Homo sapiens, UniProt P50579); test: MetAP2 enzyme assay, enzyme complexed with manganese ions; conditions: MetAP2 Mn pIC50, MetAP2 enzyme complexed with manganese ions; Met-AMC substrate at Km
[2] = molecular target: T1, human MetAP2 enzyme; test: MetAP2 enzyme assay, enzyme complexed with cobalt ions; conditions: MetAP2 Co pIC50, MetAP2 enzyme complexed with cobalt ions; Met-AMC substrate at Km

T1 sequence (P50579 whole entry): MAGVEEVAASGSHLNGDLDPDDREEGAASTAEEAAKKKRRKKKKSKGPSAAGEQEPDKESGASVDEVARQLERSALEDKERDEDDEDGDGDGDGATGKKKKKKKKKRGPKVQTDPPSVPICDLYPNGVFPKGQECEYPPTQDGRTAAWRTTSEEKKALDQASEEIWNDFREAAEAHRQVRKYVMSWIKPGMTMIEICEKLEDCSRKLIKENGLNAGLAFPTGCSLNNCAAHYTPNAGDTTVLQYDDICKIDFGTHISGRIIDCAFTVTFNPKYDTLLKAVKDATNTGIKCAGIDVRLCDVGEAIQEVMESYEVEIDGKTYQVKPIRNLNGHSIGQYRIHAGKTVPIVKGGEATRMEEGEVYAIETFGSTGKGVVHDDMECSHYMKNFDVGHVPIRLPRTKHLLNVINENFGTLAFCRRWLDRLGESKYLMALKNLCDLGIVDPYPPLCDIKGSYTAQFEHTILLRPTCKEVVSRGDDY

Row | SMILES | IC50 [1] [nM] | IC50 [2] [nM]
1 | CN1C(=O)COc2ccc(-c3cc(C(F)(F)F)cc4[nH]ncc34)cc21 [Example 296, 4-methyl-6-(6-(trifluoromethyl)-1H-indazol-4-yl)-2H-benzo[b][1,4]oxazin-3(4H)-one] | 6.31 | 20
2 | CC(C)(C)C(=O)Nc1ncccc1-c1cc(C(F)(F)F)cc2[nH]ncc12 [Example 73, N-(3-(6-(trifluoromethyl)-1H-indazol-4-yl)pyridin-2-yl)pivalamide] | 79.4 | 200
3 | FC(F)(F)c1cc(-c2cnc(N3CCOCC3)nc2)c2cn[nH]c2c1 [Example 118, 4-(5-(6-(trifluoromethyl)-1H-indazol-4-yl)pyrimidin-2-yl)morpholine] | 6.31 | 39.8
4 | FC(F)(F)c1cc(-c2cnc(N3CCOCC3)cn2)c2cn[nH]c2c1 [Example 94, 4-(5-(6-(trifluoromethyl)-1H-indazol-4-yl)pyrazin-2-yl)morpholine] | 3.16 | 63.1
5 | O=C1COc2c(cccc2-c2cc(C(F)(F)F)cc3[nH]ncc23)N1 [Example 139, 8-(6-(trifluoromethyl)-1H-indazol-4-yl)-2H-benzo[b][1,4]oxazin-3(4H)-one] | 10 | 39.8
6 | O=c1[nH]c2cc(-c3cc(C(F)(F)F)cc4[nH]ncc34)cnc2[nH]1 [Example 241, 6-(6-(trifluoromethyl)-1H-indazol-4-yl)-1H-imidazo[4,5-b]pyridin-2(3H)-one] | 2 | 15.8
7 | Cn1cc(C(=O)NCC#N)cc(-c2cc(C(F)(F)F)cc3[nH]ncc23)c1=O [Example 354, N-(cyanomethyl)-1-methyl-6-oxo-5-(6-(trifluoromethyl)-1H-indazol-4-yl)-1,6-dihydropyridine-3-carboxamide] | 6.31 | 316
8 | CN1CCN(C(=O)c2cc(-c3cc(C(F)(F)F)cc4[nH]ncc34)cnc2F)CC1 [Example 289, (2-fluoro-5-(6-(trifluoromethyl)-1H-indazol-4-yl)pyridin-3-yl)(4-methylpiperazin-1-yl)methanone] | 6.31 | 100
9 | FC(F)(F)c1cc(-c2cnc3[nH]ccc3c2)c2cn[nH]c2c1 [Example 59, 4-(1H-pyrrolo[2,3-b]pyridin-5-yl)-6-(trifluoromethyl)-1H-indazole] | 12.6 | 79.4
10 | Cc1nn(Cc2cnn(C)c2)c(CO)c1-c1cc(C(F)(F)F)cc2[nH]ncc12 [Example 410, (3-methyl-1-((1-methyl-1H-pyrazol-4-yl)methyl)-4-(6-(trifluoromethyl)-1H-indazol-4-yl)-1H-pyrazol-5-yl)methanol] | 6.31 | 15.8
11 | O=c1[nH]c2ccc(-c3cc(C(F)(F)F)cc4[nH]ncc34)cc2[nH]1 [Example 237, 5-(6-(trifluoromethyl)-1H-indazol-4-yl)-1H-benzo[d]imidazol-2(3H)-one] | 2.51 | 12.6
12 | FC(F)(F)c1cc(-c2cnc3cnccn23)c2cn[nH]c2c1 [Example 152, 3-(6-(trifluoromethyl)-1H-indazol-4-yl)imidazo[1,2-a]pyrazine] | 126 | 2000
13 | O=C1Cc2ccc(-c3cc(C(F)(F)F)cc4[nH]ncc34)cc2N1 [Example 239, 6-(6-(trifluoromethyl)-1H-indazol-4-yl)indolin-2-one] | 5.01 | 15.8
14 | O=C(NCCO)c1cncc(-c2cc(C(F)(F)F)cc3[nH]ncc23)c1 [Example 290, N-(2-hydroxyethyl)-5-(6-(trifluoromethyl)-1H-indazol-4-yl)nicotinamide] | 7.94 | 251
15 | FC(F)(F)c1cc(-c2cccc3ncccc23)c2cn[nH]c2c1 [Example 101, 5-(6-(trifluoromethyl)-1H-indazol-4-yl)quinoline] | 10 | 31.6
16 | Cc1nnc(-c2ccc(-c3cc(C(F)(F)F)cc4[nH]ncc34)cc2)o1 [Example 120, 2-methyl-5-(4-(6-(trifluoromethyl)-1H-indazol-4-yl)phenyl)-1,3,4-oxadiazole] | 15.8 | 63.1
17 | COCc1ccc(-c2cc(C(F)(F)F)cc3[nH]ncc23)cc1 [Example 48, 4-(4-(methoxymethyl)phenyl)-6-(trifluoromethyl)-1H-indazole] | 5.01 | 50.1
18 | O=C(NCC(F)F)c1c[nH]c(=O)c(-c2cc(C(F)(F)F)cc3[nH]ncc23)c1 [Example 338, N-(2,2-difluoroethyl)-6-oxo-5-(6-(trifluoromethyl)-1H-indazol-4-yl)-1,6-dihydropyridine-3-carboxamide] | 10 | 398
19 | FC(F)(F)c1cc(-c2cnn(Cc3ccncc3)c2)c2cn[nH]c2c1 [Example 43, 4-(1-(pyridin-4-ylmethyl)-1H-pyrazol-4-yl)-6-(trifluoromethyl)-1H-indazole] | 6.31 | 79.4
20 | Cc1nn2c(=O)[nH]ncc2c1-c1cc(C(F)(F)F)cc2[nH]ncc12 [Example 222, 2-methyl-3-(6-(trifluoromethyl)-1H-indazol-4-yl)pyrazolo[1,5-d][1,2,4]triazin-7(6H)-one] | 15.8 | 251
21 | FC(F)(F)c1cc(-c2ccc(OCC3CC3)nc2)c2cn[nH]c2c1 [Example 58, 4-(6-(cyclopropylmethoxy)pyridin-3-yl)-6-(trifluoromethyl)-1H-indazole] | 12.6 | 126
22 | FC(F)(F)COc1ncccc1-c1cc(C(F)(F)F)cc2[nH]ncc12 [Example 100, 4-(2-(2,2,2-trifluoroethoxy)pyridin-3-yl)-6-(trifluoromethyl)-1H-indazole] | 15.8 | 200
23 | Cn1cc(C(=O)NCCO)cc(-c2cc(C(F)(F)F)cc3[nH]ncc23)c1=O [Example 315, N-(2-hydroxyethyl)-1-methyl-6-oxo-5-(6-(trifluoromethyl)-1H-indazol-4-yl)-1,6-dihydropyridine-3-carboxamide] | 10 | 316

Next, values leading:

Row | IC50 [1] [nM] | IC50 [2] [nM] | SMILES
24 | 5.01 | 39.8 | Cc1n[nH]cc1-c1cc(C(F)(F)F)cc2[nH]ncc12 [Example 22, 4-(3-methyl-1H-pyrazol-4-yl)-6-(trifluoromethyl)-1H-indazole]
25 | 12.6 | 79.4 | Cc1c(-c2cc(C(F)(F)F)cc3[nH]ncc23)ccc(=O)n1Cc1ccccn1 [Example 407, 6-methyl-1-(pyridin-2-ylmethyl)-5-(6-(trifluoromethyl)-1H-indazol-4-yl)pyridin-2(1H)-one]
26 | 6.31 | 25.1 | Cc1ccc(-c2cc(C(F)(F)F)cc3[nH]ncc23)c(N)n1 [Example 211, 6-methyl-3-(6-(trifluoromethyl)-1H-indazol-4-yl)pyridin-2-amine]
27 | 12.6 | 15.8 | Cc1ccc(S(=O)(=O)N(C)C)cc1-c1cc(C(F)(F)F)cc2[nH]ncc12 [Example 127, N,N,4-trimethyl-3-(6-(trifluoromethyl)-1H-indazol-4-yl)benzenesulfonamide]
28 | 10 | 200 | N#Cc1cnc(N)c(-c2cc(C(F)(F)F)cc3[nH]ncc23)c1 [Example 212, 6-amino-5-(6-(trifluoromethyl)-1H-indazol-4-yl)nicotinonitrile]
29 | 12.6 | 39.8 | OCc1ccc(Cl)c(-c2cc(C(F)(F)F)cc3[nH]ncc23)c1 [Example 128, (4-chloro-3-(6-(trifluoromethyl)-1H-indazol-4-yl)phenyl)methanol]
30 | 6.31 | 25.1 | Cc1nc(C(=O)NCCO)ccc1-c1cc(C(F)(F)F)cc2[nH]ncc12 [Example 387, N-(2-hydroxyethyl)-6-methyl-5-(6-(trifluoromethyl)-1H-indazol-4-yl)picolinamide]
31 | 50.1 | 501 | CN(C)C(=O)c1ccccc1-c1cc(C(F)(F)F)cc2[nH]ncc12 [Example 47, N,N-dimethyl-2-(6-(trifluoromethyl)-1H-indazol-4-yl)benzamide]
32 | 3.98 | 79.4 | Cc1cc(=O)n(CC#N)cc1-c1cc(C(F)(F)F)cc2[nH]ncc12 [Example 408, 2-(4-methyl-2-oxo-5-(6-(trifluoromethyl)-1H-indazol-4-yl)pyridin-1(2H)-yl)acetonitrile]
33 | 12.6 | 39.8 | CS(=O)(=O)Nc1ccc(-c2cc(C(F)(F)F)cc3[nH]ncc23)cc1 [Example 56, N-(4-(6-(trifluoromethyl)-1H-indazol-4-yl)phenyl)methanesulfonamide]
34 | 5.01 | 63.1 | CCn1cc(-c2cc(C(F)(F)F)cc3[nH]ncc23)c(C)n1 [Example 171, 4-(1-ethyl-3-methyl-1H-pyrazol-4-yl)-6-(trifluoromethyl)-1H-indazole]
35 | 6.31 | 39.8 | Cc1ncc(-c2cc(C(F)(F)F)cc3[nH]ncc23)c2cc[nH]c12 [Example 292, 4-(7-methyl-1H-pyrrolo[2,3-c]pyridin-4-yl)-6-(trifluoromethyl)-1H-indazole]
36 | 12.6 | 31.6 | NC(=O)c1ccc(F)c(-c2cc(C(F)(F)F)cc3[nH]ncc23)c1 [Example 326, 4-fluoro-3-(6-(trifluoromethyl)-1H-indazol-4-yl)benzamide]
37 | 39.8 | 794 | Cc1onc(N)c1-c1cc(C(F)(F)F)cc2[nH]ncc12 [Example 166, 5-methyl-4-(6-(trifluoromethyl)-1H-indazol-4-yl)isoxazol-3-amine]
38 | 7.94 | 50.1 | Cc1nc(NS(C)(=O)=O)ccc1-c1cc(C(F)(F)F)cc2[nH]ncc12 [Example 257, N-(6-methyl-5-(6-(trifluoromethyl)-1H-indazol-4-yl)pyridin-2-yl)methanesulfonamide]
39 | 3.98 | 15.8 | Cc1nc(CCS(C)(=O)=O)ccc1-c1cc(C(F)(F)F)cc2[nH]ncc12 [Example 409, 4-(2-methyl-6-(2-(methylsulfonyl)ethyl)pyridin-3-yl)-6-(trifluoromethyl)-1H-indazole]
